# Data from patent publication US10167262B2, “Herbicidal substituted 3-arylpyrazoles” (FMC CORPORATION, priority 2014, dated 2019).
# Tests used:
# Type in all cases: in vivo
# [1] = system: Italian ryegrass (Lolium multiflorum); experiment: Test C pre-/postemergence greenhouse test, plant response rating 0-100; settings: Postemergence
# Outline: (§1)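 Greenhouse test. Preemergence: seed in loam:sand, sprayed with formulated chemical (solvent + surfactant). Postemergence: 1–4 leaf plants, 2–18 cm, peat-based potting medium. Hold 13–15 d; score visually, 0 (none) to 100 (complete control); dash = not tested.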
# [2] = system: pigweed (Amaranthus retroflexus); experiment: as above; settings: Postemergence
# Outline: as §1
# [3] = system: winter wheat (Triticum aestivum); experiment: as above; settings: Postemergence
# Outline: as §1
# [4] = system: johnsongrass (Sorghum halepense); experiment: as above; settings: Postemergence
# Outline: as §1
# [5] = system: lambsquarters (Chenopodium album); experiment: as above; settings: Postemergence
# Outline: as §1
# [6] = system: galium (catchweed bedstraw, Galium aparine); experiment: as above; settings: Postemergence
# Outline: as §1
# [7] = system: corn (Zea mays); experiment: as above; settings: Postemergence
# Outline: as §1
# [8] = system: soybean (Glycine max); experiment: as above; settings: Postemergence
# Outline: as §1
# [9] = system: giant foxtail (Setaria faberii); experiment: as above; settings: Postemergence
# Outline: as §1
# [10] = system: yellow nutsedge (Cyperus esculentus); experiment: as above; settings: Postemergence
# Outline: as §1
# [11] = system: kochia (Kochia scoparia); experiment: Test C postemergence greenhouse test, plant response rating 0-100
# Outline: (§2)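 Each weed species was grown in potting medium and sprayed after emergence, when 2–18 cm tall. Ratings, made by eye relative to control pots, were recorded 13–15 days later using a scale where 0 is no effect.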
# [12] = system: wild oat (Avena fatua); experiment: as above
# Outline: as §2
# [13] = system: chickweed (common chickweed, Stellaria media); experiment: as above
# Outline: as §2
structure (smiles),measurement,setting,value
"CCCn1cc(C(=O)c2ccccc2)c(-c2cc(Cl)cc(Cl)c2)n1 [Compound 61, [3-(3,5-dichlorophenyl)-1-propyl-1H-pyrazol-4-yl]phenylmethanone]",pest or weed control at 62 g/ha,"[1]; Lolium multiflorum, post-emergence, 62 g ai/ha, read-out: Plant response rating (0 to 100), Ryegrass, Italian",0%
same,pest or weed control at 125 g/ha,"[1]; Lolium multiflorum, post-emergence, 125 g ai/ha, read-out: Plant response rating (0 to 100), Ryegrass, Italian",0%
same,pest or weed control at 250 g/ha,"[1]; Lolium multiflorum, post-emergence, 250 g ai/ha, scale 0 to 100",0%
same,pest or weed control at 62 g/ha,"[2]; Amaranthus retroflexus, post-emergence, 62 g ai/ha, read-out: Plant response rating (0 to 100), Pigweed",100%
same,pest or weed control at 125 g/ha,"[2]; Amaranthus retroflexus, post-emergence, 125 g ai/ha, read-out: Plant response rating (0 to 100), Pigweed",100%
same,pest or weed control at 250 g/ha,"[2]; Amaranthus retroflexus, post-emergence, 250 g ai/ha, scale 0 to 100",100%
same,plant injury at 62 g/ha,"[3]; Triticum aestivum, post-emergence, 62 g ai/ha, read-out: Plant response rating (0 to 100), Wheat",0%
same,plant injury at 125 g/ha,"[3]; Triticum aestivum, post-emergence, 125 g ai/ha, read-out: Plant response rating (0 to 100), Wheat",0%
same,plant injury at 250 g/ha,"[3]; Triticum aestivum, post-emergence, 250 g ai/ha, scale 0 to 100",0%
same,pest or weed control at 62 g/ha,"[4]; Sorghum halepense, post-emergence, 62 g ai/ha, read-out: Plant response rating (0 to 100), Johnsongrass",10%
same,pest or weed control at 125 g/ha,"[4]; Sorghum halepense, post-emergence, 125 g ai/ha, read-out: Plant response rating (0 to 100), Johnsongrass",10%
same,pest or weed control at 250 g/ha,"[4]; Sorghum halepense, post-emergence, 250 g ai/ha, scale 0 to 100",10%
same,pest or weed control at 62 g/ha,"[5]; Chenopodium album, post-emergence, 62 g ai/ha, read-out: Plant response rating (0 to 100), Lambsquarters",40%
same,pest or weed control at 125 g/ha,"[5]; Chenopodium album, post-emergence, 125 g ai/ha, read-out: Plant response rating (0 to 100), Lambsquarters",55%
same,pest or weed control at 250 g/ha,"[5]; Chenopodium album, post-emergence, 250 g ai/ha, scale 0 to 100",55%
same,pest or weed control at 31 g/ha,"[6]; Galium, post-emergence, 31 g ai/ha, read-out: Plant response rating (0 to 100), Galium",0%
same,pest or weed control at 62 g/ha,"[6]; Galium, post-emergence, 62 g ai/ha, read-out: Plant response rating (0 to 100), Galium",0%
same,pest or weed control at 125 g/ha,"[6]; Galium, post-emergence, 125 g ai/ha, read-out: Plant response rating (0 to 100), Galium",0%
same,pest or weed control at 250 g/ha,"[6]; Galium, post-emergence, 250 g ai/ha, scale 0 to 100",0%
same,plant injury at 31 g/ha,"[7]; Zea mays, post-emergence, 31 g ai/ha",5%
same,plant injury at 62 g/ha,"[7]; Zea mays, post-emergence, 62 g ai/ha",5%
same,plant injury at 125 g/ha,"[7]; Zea mays, post-emergence, 125 g ai/ha",5%
same,"Corn plant response rating (crop injury, 0 = no effect, 100 = complete kill) at 250 g/ha","[7]; Zea mays, post-emergence, 250 g ai/ha, scale 0 to 100",5%
same,plant injury at 62 g/ha,"[8]; Glycine max, post-emergence, 62 g ai/ha, read-out: Plant response rating (0 to 100), Soybean",0%
same,plant injury at 125 g/ha,"[8]; Glycine max, post-emergence, 125 g ai/ha, read-out: Plant response rating (0 to 100), Soybean",10%
same,plant injury at 250 g/ha,"[8]; Glycine max, post-emergence, 250 g ai/ha, scale 0 to 100",15%
same,pest or weed control at 31 g/ha,"[9]; Setaria faberi, post-emergence, 31 g ai/ha, read-out: Plant response rating (0 to 100), Foxtail, Giant",5%
same,pest or weed control at 62 g/ha,"[9]; Setaria faberi, post-emergence, 62 g ai/ha, read-out: Plant response rating (0 to 100), Foxtail, Giant",5%
same,pest or weed control at 125 g/ha,"[9]; Setaria faberi, post-emergence, 125 g ai/ha, read-out: Plant response rating (0 to 100), Foxtail, Giant",5%
same,pest or weed control at 250 g/ha,"[9]; Setaria faberi, post-emergence, 250 g ai/ha, scale 0 to 100",10%
same,pest or weed control at 62 g/ha,"[10]; Cyperus, post-emergence, 62 g ai/ha, read-out: Plant response rating (0 to 100), Nutsedge, Yellow",0%
same,pest or weed control at 125 g/ha,"[10]; Cyperus, post-emergence, 125 g ai/ha, read-out: Plant response rating (0 to 100), Nutsedge, Yellow",5%
same,pest or weed control at 250 g/ha,"[10]; Cyperus, post-emergence, 250 g ai/ha, scale 0 to 100",5%
same,pest or weed control at 62 g/ha,"[11]; Bassia scoparia, post-emergence, 62 g ai/ha",40%
same,pest or weed control at 125 g/ha,"[11]; Bassia scoparia, post-emergence, 125 g ai/ha",45%
same,pest or weed control at 250 g/ha,"[11]; Bassia scoparia, post-emergence, 250 g ai/ha, scale 0 to 100",50%
same,pest or weed control at 62 g/ha,"[12]; Avena fatua, post-emergence, 62 g ai/ha",0%
same,pest or weed control at 125 g/ha,"[12]; Avena fatua, post-emergence, 125 g ai/ha",0%
same,pest or weed control at 250 g/ha,"[12]; Avena fatua, post-emergence, 250 g ai/ha, scale 0 to 100",0%
same,pest or weed control at 31 g/ha,"[13]; Stellaria media, post-emergence, 31 g ai/ha",20%
same,pest or weed control at 125 g/ha,"[13]; Stellaria media, post-emergence, 125 g ai/ha",75%
same,pest or weed control at 250 g/ha,"[13]; Stellaria media, post-emergence, 250 g ai/ha, scale 0 to 100",75%
Clc1cc(Cl)cc(-c2n[nH]cc2C(=NNc2ccccc2Cl)c2ccccc2)c1 [Compound 66],"Plant response rating (0 to 100), Ryegrass, Italian",[1]; 62 g ai/ha,0
same,"Plant response rating (0 to 100), Ryegrass, Italian",[1]; 125 g ai/ha,0
same,"Plant response rating, Ryegrass, Italian","[1]; 250 g ai/ha, scale 0 to 100",0
same,"Plant response rating, Ryegrass, Italian","[1]; 500 g ai/ha, scale 0 to 100",0
same,"Plant response rating (0 to 100), Pigweed",[2]; 62 g ai/ha,55
same,"Plant response rating (0 to 100), Pigweed",[2]; 125 g ai/ha,85
same,"Plant response rating, Pigweed","[2]; 250 g ai/ha, scale 0 to 100",95
same,"Plant response rating, Pigweed","[2]; 500 g ai/ha, scale 0 to 100",100
same,"Plant response rating (0 to 100), Wheat",[3]; 62 g ai/ha,0
same,"Plant response rating (0 to 100), Wheat",[3]; 125 g ai/ha,0
same,"Plant response rating, Wheat","[3]; 250 g ai/ha, scale 0 to 100",0
same,"Plant response rating, Wheat","[3]; 500 g ai/ha, scale 0 to 100",0
same,"Plant response rating (0 to 100), Johnsongrass",[4]; 62 g ai/ha,0
same,"Plant response rating (0 to 100), Johnsongrass",[4]; 125 g ai/ha,0
same,"Plant response rating, Johnsongrass","[4]; 250 g ai/ha, scale 0 to 100",0
same,"Plant response rating, Johnsongrass","[4]; 500 g ai/ha, scale 0 to 100",0
same,"Plant response rating (0 to 100), Lambsquarters",[5]; 62 g ai/ha,40
same,"Plant response rating (0 to 100), Lambsquarters",[5]; 125 g ai/ha,50
same,"Plant response rating, Lambsquarters","[5]; 250 g ai/ha, scale 0 to 100",90
same,"Plant response rating, Lambsquarters","[5]; 500 g ai/ha, scale 0 to 100",90
same,"Plant response rating (0 to 100), Galium",[6]; 62 g ai/ha,0
same,"Plant response rating (0 to 100), Galium",[6]; 125 g ai/ha,0
same,"Plant response rating, Galium","[6]; 250 g ai/ha, scale 0 to 100",0
same,"Plant response rating, Galium","[6]; 500 g ai/ha, scale 0 to 100",5
same,"Plant response rating (0 to 100), Corn",[7]; 62 g ai/ha,0
same,"Plant response rating (0 to 100), Corn",[7]; 125 g ai/ha,0
same,"Plant response rating, Corn","[7]; 250 g ai/ha, scale 0 to 100",5
same,"Plant response rating, Corn","[7]; 500 g ai/ha, scale 0 to 100",5
same,"Plant response rating (0 to 100), Soybean",[8]; 62 g ai/ha,0
same,"Plant response rating (0 to 100), Soybean",[8]; 125 g ai/ha,0
same,"Plant response rating, Soybean","[8]; 250 g ai/ha, scale 0 to 100",0
same,"Plant response rating, Soybean","[8]; 500 g ai/ha, scale 0 to 100",5
same,"Plant response rating (0 to 100), Foxtail, Giant",[9]; 62 g ai/ha,0
same,"Plant response rating (0 to 100), Foxtail, Giant",[9]; 125 g ai/ha,0
same,"Plant response rating, Foxtail, Giant","[9]; 250 g ai/ha, scale 0 to 100",0
same,"Plant response rating, Foxtail, Giant","[9]; 500 g ai/ha, scale 0 to 100",0
same,"Plant response rating (0 to 100), Nutsedge, Yellow",[10]; 62 g ai/ha,0
same,"Plant response rating (0 to 100), Nutsedge, Yellow",[10]; 125 g ai/ha,0
same,"Plant response rating, Nutsedge, Yellow","[10]; 250 g ai/ha, scale 0 to 100",0
same,"Plant response rating, Nutsedge, Yellow","[10]; 500 g ai/ha, scale 0 to 100",0
same,"Plant response rating (0 to 100), Kochia",[11]; 62 g ai/ha,60
same,"Plant response rating (0 to 100), Kochia",[11]; 125 g ai/ha,65
same,"Plant response rating, Kochia","[11]; 250 g ai/ha, scale 0 to 100",75
same,"Plant response rating, Kochia","[11]; 500 g ai/ha, scale 0 to 100",95
same,"Plant response rating (0 to 100), Oat, Wild",[12]; 62 g ai/ha,0
same,"Plant response rating (0 to 100), Oat, Wild",[12]; 125 g ai/ha,0
same,"Plant response rating, Oat, Wild","[12]; 250 g ai/ha, scale 0 to 100",0
same,"Plant response rating, Oat, Wild","[12]; 500 g ai/ha, scale 0 to 100",0
same,"Plant response rating (0 to 100), Chickweed",[13]; 62 g ai/ha,100
same,"Plant response rating (0 to 100), Chickweed",[13]; 125 g ai/ha,100
same,"Plant response rating, Chickweed","[13]; 250 g ai/ha, scale 0 to 100",100
same,"Plant response rating, Chickweed","[13]; 500 g ai/ha, scale 0 to 100",100
